Test results taken from US20090247499A1, “SULFONYLATED PIPERAZINES AS CANNABINOID-1 RECEPTOR MODULATORS” (priority 2006, published 2009).
Read-outs that look alike come from different tables or passages of the source.

Assays:
[1] = target: T1, recombinant human CB1 receptor expressed in CHO cells (Homo sapiens, UniProt P21554); experiment: Cannabinoid Receptor-1 (CB1) Functional Activity Assay (cAMP); assay type: cell-based
T1 construct: expressed in transfected cells; CB1-CHO cell suspension for cAMP
Method: The functional activation of CB1 receptor is based on recombinant human CBI receptor expressed in CHO cells (Felder et al, Mol. Pharmacol. 48: 443-450, 1995). To determine the agonist activity or inverse agonist activity of any test compound, 50 ul of CB1-CHO cell suspension are mixed with test compound and 70 ul assay buffer containing 0.34 mM 3-isobutyl-1-methylxanthine and 5.1 uM of forskolin in 96-well plates. The assay buffer is comprised of Earle's Balanced Salt Solution supplemented with 5 mM MgCl2, 1 mM glutamine, 10 mM HEPES, and 1 mg/mL bovine serum albumin. The mixture is incubated at room temperature for 30 minutes, and terminated by adding 30 μl/well of 0.5M HCl. The total intracellular cAMP level is quantitated using the New England Nuclear Flashplate and cAMP radioimmunoassay kit.

[2] = target: T2, recombinant human CB1 receptor (Homo sapiens, UniProt P21554); experiment: Cannabinoid Receptor-1 (CB1) Binding Assay
T2 construct: expressed in transfected cells; CB1-CHO cell suspension for cAMP
Method: Binding affinity determination is based on recombinant human CB1 receptor expressed in Chinese Hamster Ovary (CHO) cells (Felder et al, Mol. Pharmacol. 48: 443-450, 1995). Total assay volume is 250 μl (240 μl CB1 receptor membrane solution plus 5 μl test compound solution plus 5 μl [3H]CP-55940 solution). Final concentration of [3H]CP-55940 is 0.6 nM. Binding buffer contains 50 mM Tris-HCl, pH7.4, 2.5 mM EDTA, 5 mM MgCl2, 0.5 mg/mL fatty acid free bovine serum albumin and protease inhibitors (Cat#P8340, from Sigma). To initiate the binding reaction, 5 μl of radioligand solution is added, the mixture is incubated with gentle shaking on a shaker for 1.5 h at 30° C. The binding is terminated by using 96-well harvester and filtering through GF/C filter presoaked in 0.05% polyethylenimine. The bound radiolabel is quantitated using scintillation counter. Apparent binding affinities for various compounds are calculated from IC50 values (DeBlasi et al., Trends Pharmacol Sci 10: 227-229, 1989).

[3] = CB1-CHO cells, forskolin, intracellular cAMP, read-out: CB1 function activity EC50
[4] = recombinant human CB1 receptor in CHO cells, [3H]CP-55940 0.6 nM, read-out: CB1 binding IC50

T1 sequence (P21554 whole entry): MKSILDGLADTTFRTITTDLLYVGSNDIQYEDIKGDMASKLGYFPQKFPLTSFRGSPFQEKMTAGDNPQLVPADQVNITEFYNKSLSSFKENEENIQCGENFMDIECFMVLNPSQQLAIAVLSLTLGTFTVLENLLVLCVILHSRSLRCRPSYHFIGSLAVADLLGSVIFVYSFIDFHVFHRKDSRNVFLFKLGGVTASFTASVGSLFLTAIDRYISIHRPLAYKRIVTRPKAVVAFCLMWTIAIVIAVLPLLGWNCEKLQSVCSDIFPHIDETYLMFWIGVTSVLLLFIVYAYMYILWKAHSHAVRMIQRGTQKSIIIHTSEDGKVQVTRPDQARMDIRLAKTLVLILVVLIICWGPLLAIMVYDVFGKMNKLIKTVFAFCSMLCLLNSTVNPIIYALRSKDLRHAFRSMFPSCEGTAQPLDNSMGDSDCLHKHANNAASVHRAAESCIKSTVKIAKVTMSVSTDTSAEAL
T2 sequence (P21554 whole entry): as above

EC50 [1, 3] [nM]	IC50 [2, 4] [nM]	Compound	EC50 [1] [nM]	IC50 [2] [nM]
1.1	303	O=C(CC1CC1)N1CCN(S(=O)(=O)c2cccc3ccccc23)CC1 [Example 17, 4-(cyclopropyl-acetyl)-1-(1-naphthylsulfonyl)piperazine]		
10.5	3790	O=C(N1CCCCC1)N1CCN(S(=O)(=O)c2cccc3ccccc23)CC1 [Example 83, 4-(piperidin-1-yl-carbonyl)-1-(1-naphthylsulfonyl) piperazine]		
37.7	3220	O=C(c1ccccc1)N1CCN(S(=O)(=O)c2cc(C(F)(F)F)cc(C(F)(F)F)c2)CC1 [Example 89, 4-benzoyl-1-((3,5-bis(trifluoromethyl)phenyl)sulfonyl)piperazine]		
		O=C(C1CCCCC1)N1C2CCC1CN(S(=O)(=O)c1cccc3ccccc13)C2 [Example 114, 8-(cyclohexylcarbonyl)-3-(1-naphthylsulfonyl)-3,8-diazabicyclo[3.2.1]octane]	15.1	3190
0.7	6.07	COC(=O)c1cc(C(F)(F)F)cc(S(=O)(=O)N2CCN(C(=O)Cc3ccc(C(F)(F)F)cc3)CC2)c1 [Example 125, 4-(4-trifluoromethylphenyl-acetyl)-1-((3-methoxycarbonyl-5-trifluoromethyl-phenyl)sulfonyl)piperazine]		

Compound	EC50 [1, 3] [nM]	IC50 [2, 4] [nM]	EC50 [1] [nM]	IC50 [2] [nM]
O=C(C1CCCCC1)N1CCN(S(=O)(=O)c2cc(Cl)cc(Cl)c2)CC1 [Example 101, 4-(cyclohexyl-carbonyl)-1-((3,5-dichlorophenyl)sulfonyl)piperazine]	0.41	422		
O=C(Cc1ccc(C(F)(F)F)cc1)N1CCN(S(=O)(=O)c2cc(C3CC3)cc(C(F)(F)F)c2)CC1 [Example 123, 4-(4-trifluoromethylphenyl-acetyl)-1-((3-cyclopropyl-5-trifluoromethyl-phenyl)sulfonyl)piperazine]	1.09			1.24
O=C(C1CCCCC1)N1CCN(S(=O)(=O)c2cc(C(F)(F)F)cc(C(F)(F)F)c2)CC1 [Example 132, 4-(cyclohexyl-carbonyl)-1-((3,5-bis(trifluoromethyl)phenyl)sulfonyl)piperazine]		260	1.07	
